We go through 25 compounds from ChEMBL document CHEMBL3608244, “Left-Hand Side Exploration of Novel Bacterial Topoisomerase Inhibitors to Improve Selectivity against hERG Binding” (ACS Med Chem Lett, 2015).

The structures appear in SMILES notation. Converted amounts (≈) assume the structure as drawn. Where only a bound is given, the exact number is not on record here.

As a reminder, the solubility is the dissolved amount per volume that the medium holds. By MIC is commonly meant the lowest concentration that inhibits growth of the organism. High values mean a less susceptible organism, low ones a more susceptible organism. Broadly, the IC50 is the midpoint of a concentration-inhibition curve.

The test system of one data set is Caco-2. The experiment in a line: Permeability across human Caco2 cells. The format is ADME, cell-based.
A short description of data set [1]: Solubility of the compound. Type of data set: physicochemical.
The subject of data set [2] is Mycobacterium tuberculosis. The experiment in a line: Antimycobacterial activity against Mycobacterium tuberculosis H37Rv ATCC 27294 incubated for 7 days by microdilution method. Type of data set: functional. The following applies: H37Rv ATCC 27294, 168 h. For orientation: Broth dilution looks for growth in wells or tubes with falling amounts of substance.
For data set [3], the target named is Voltage-gated inwardly rectifying potassium channel KCNH2 (Homo sapiens, UniProt Q12809).
Description: Inhibition of human ERG by IonWorks assay
Data set [4] deals with DNA gyrase subunit A/DNA gyrase subunit B (Mycobacterium tuberculosis (strain ATCC 25618 / H37Rv), UniProt P9WG45+P9WG47). As to the kind of experiment: Inhibition of Mycobacterium tuberculosis H37Rv DNA gyrase assessed as supercoiling of pBR322 DNA after 90 mins by agarose gel electrophoresis method.
In data set [5] the test system is Mycobacterium tuberculosis. As to the kind of experiment: Antimycobacterial activity against Mycobacterium tuberculosis infected in human THP1 cells assessed as bacteria killing effect. Type of data set: functional, organism-based. The following applies: THP-1.
Data set [6] relates to Mycobacterium tuberculosis. The experiment in a line: Antimycobacterial activity against Mycobacterium tuberculosis infected in human THP1 cells assessed as bacteria killing effect at 1 to 16 ug/ml. Type of data set: functional, THP-1.
For data set [7], the system named is Mycobacterium tuberculosis. As to the kind of experiment: Antimycobacterial activity against Mycobacterium tuberculosis in acute mouse model of tuberculosis assessed as bacteria killing effect at 100 mg/kg, po bid administered for 10 days relative to early control. Type of data set: functional.

DNA gyrase subunit A/DNA gyrase subunit B, sequence (P9WG45 whole entry): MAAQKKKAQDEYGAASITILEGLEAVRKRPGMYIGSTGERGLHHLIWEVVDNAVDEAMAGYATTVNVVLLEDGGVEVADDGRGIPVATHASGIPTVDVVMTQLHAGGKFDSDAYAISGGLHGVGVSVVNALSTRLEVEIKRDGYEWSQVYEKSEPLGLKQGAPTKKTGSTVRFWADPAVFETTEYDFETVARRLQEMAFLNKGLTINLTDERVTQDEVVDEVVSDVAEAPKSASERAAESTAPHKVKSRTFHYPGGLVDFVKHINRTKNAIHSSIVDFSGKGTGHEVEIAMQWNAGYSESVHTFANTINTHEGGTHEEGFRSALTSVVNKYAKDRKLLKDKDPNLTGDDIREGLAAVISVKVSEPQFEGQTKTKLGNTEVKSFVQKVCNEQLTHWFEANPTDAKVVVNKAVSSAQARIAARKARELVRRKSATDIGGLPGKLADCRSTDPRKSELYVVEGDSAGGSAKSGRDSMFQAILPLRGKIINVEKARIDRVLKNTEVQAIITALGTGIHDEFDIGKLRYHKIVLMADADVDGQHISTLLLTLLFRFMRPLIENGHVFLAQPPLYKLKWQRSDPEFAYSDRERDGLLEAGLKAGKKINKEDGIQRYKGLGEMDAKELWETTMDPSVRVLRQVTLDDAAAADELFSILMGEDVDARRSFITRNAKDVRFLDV
DNA gyrase subunit A/DNA gyrase subunit B, sequence (P9WG47 whole entry): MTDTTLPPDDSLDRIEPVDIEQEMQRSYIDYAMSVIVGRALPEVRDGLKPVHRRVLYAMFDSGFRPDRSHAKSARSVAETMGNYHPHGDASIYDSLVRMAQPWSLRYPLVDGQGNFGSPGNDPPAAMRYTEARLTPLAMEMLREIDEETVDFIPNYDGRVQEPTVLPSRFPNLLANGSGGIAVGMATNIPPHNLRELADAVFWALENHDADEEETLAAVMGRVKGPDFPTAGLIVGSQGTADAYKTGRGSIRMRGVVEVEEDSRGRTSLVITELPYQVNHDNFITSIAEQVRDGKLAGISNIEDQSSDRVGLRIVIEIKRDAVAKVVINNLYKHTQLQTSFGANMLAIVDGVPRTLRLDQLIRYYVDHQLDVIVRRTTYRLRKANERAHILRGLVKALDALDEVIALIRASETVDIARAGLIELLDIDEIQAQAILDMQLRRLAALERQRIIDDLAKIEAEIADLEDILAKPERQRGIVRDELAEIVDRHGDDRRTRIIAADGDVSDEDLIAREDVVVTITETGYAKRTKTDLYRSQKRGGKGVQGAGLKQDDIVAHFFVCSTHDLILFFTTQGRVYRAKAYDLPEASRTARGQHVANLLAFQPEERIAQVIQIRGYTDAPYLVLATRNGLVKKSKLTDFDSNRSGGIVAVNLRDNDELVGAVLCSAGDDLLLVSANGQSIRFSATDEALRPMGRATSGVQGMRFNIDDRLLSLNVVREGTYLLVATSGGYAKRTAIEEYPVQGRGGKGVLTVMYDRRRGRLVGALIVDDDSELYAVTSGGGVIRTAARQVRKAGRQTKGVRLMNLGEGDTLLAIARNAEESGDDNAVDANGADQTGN
Voltage-gated inwardly rectifying potassium channel KCNH2, sequence (Q12809 whole entry): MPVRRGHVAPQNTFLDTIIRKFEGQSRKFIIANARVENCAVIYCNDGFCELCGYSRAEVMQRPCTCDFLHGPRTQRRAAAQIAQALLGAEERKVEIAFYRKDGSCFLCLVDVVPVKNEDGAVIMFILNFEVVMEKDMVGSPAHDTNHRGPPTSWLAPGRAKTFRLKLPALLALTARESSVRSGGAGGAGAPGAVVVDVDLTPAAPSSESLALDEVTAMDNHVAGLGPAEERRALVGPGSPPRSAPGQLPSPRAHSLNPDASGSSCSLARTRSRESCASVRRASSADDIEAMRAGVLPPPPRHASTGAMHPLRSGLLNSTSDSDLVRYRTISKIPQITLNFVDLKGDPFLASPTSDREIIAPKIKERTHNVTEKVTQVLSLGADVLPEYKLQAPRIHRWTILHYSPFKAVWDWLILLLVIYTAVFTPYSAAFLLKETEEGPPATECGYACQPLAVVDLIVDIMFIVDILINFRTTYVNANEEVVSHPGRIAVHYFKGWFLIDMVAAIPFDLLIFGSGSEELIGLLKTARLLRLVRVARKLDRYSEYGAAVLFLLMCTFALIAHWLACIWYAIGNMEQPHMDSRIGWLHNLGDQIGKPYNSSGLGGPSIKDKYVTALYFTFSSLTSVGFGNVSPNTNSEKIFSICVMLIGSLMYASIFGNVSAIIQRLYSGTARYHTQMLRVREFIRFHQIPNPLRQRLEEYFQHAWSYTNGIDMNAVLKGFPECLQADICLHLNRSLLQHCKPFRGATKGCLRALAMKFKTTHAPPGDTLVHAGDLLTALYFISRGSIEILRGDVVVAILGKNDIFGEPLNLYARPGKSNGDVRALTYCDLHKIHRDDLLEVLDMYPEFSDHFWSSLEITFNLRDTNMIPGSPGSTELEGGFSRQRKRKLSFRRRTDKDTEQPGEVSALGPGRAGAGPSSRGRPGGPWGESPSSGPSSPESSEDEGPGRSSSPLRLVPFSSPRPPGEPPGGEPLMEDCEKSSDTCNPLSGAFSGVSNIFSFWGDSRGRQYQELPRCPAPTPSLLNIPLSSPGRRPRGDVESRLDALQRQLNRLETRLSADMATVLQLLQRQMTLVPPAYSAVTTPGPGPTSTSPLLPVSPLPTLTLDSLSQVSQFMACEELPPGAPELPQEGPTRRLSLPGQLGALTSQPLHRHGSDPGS

In the case of `O=C1COc2ccc(CN[C@@H]3CCN(CCn4c(=O)ccc5ncc(Oc6ccon6)cc54)C[C@@H]3F)nc2N1`, the permeability result with Caco-2 is on record as “permeable”. The concentration in solution in data set [1] (solubility) was 665 µM (≈ 356 µg/mL). Besides, in data set [2], the MIC came out at 0.25 µM (≈ 0.134 µg/mL).

`O=C(O)c1cn(C2CC2)c2cc(N3CCNCC3)c(F)cc2c1=O` [CIPROFLOXACIN] had an MIC in data set [2] of 0.5 µM (≈ 0.166 µg/mL). The same measure, in the same setting: the same measure for `COc1cnc2ccc(=O)n(CCN3CCC(c4nc5cc(Cl)ccc5[nH]4)CC3)c2c1`: 0.25 µM (≈ 0.109 µg/mL). Regarding `NS(=O)(=O)c1ccc(Oc2ccc3ccc(=O)n(CCN4CCC(NCc5ccc6c(n5)NC(=O)CO6)CC4)c3n2)cc1`, in the data set with Caco-2, the permeability result is “impermeable”. In data set [3], the IC50 was more than 100 µM. In data set [2], this compound registered an MIC of 0.03 µM (≈ 0.0182 µg/mL). On to `O=C1COc2ccc(CNC3CCN(CCn4c(=O)ccc5ccc(Cl)nc54)CC3)nc2N1`, for which, in data set [4], the IC50 was found to be 0.11 µM. Moreover, the MIC in data set [2] amounted to 0.19 µM (≈ 0.0891 µg/mL).

As for `O=C1COc2ccc(CNC3CCN(CCn4c(=O)ccc5ncc(OCc6ccccn6)cc54)CC3)nc2N1`, in data set [2], the MIC came out at 0.5 µM (≈ 0.271 µg/mL).

Consider `Cc1ncc(CNC2CCN(CCn3c(=O)ccc4ncc(F)cc43)CC2)cc1Cl`, for which the IC50 in data set [4] amounted to 0.25 µM. For the same compound, inhibition of growth in data set [2] (MIC) required 0.19 µM (≈ 0.0817 µg/mL).

As for `O=C1COc2ccc(CNC3CCN(CCn4c(=O)ccc5ncc(Oc6ccon6)cc54)CC3)nc2N1`, in the data set on Caco-2, the permeability entry is given as “permeable”. This compound also registered a solubility in data set [1] of 665 µM (≈ 344 µg/mL). In data set [2], this compound yielded an MIC of 0.25 µM (≈ 0.129 µg/mL).

For `O=C1COc2ccc(CNC3CCN(CCn4c(=O)ccc5ccc(Oc6cccnc6)nc54)CC3)nc2N1`, in data set [4], the IC50 is 0.104 µM. Also, the MIC in data set [2] was found to be 0.06 µM (≈ 0.0317 µg/mL). `O=C1COc2ccc(CNC3CCN(CCn4c(=O)ccc5ccc(Oc6cncnc6)nc54)CC3)nc2N1`: the figures for the IC50 in data set [4] and in data set [3] were 0.173 µM and more than 224 µM, respectively. This compound also yielded an MIC in data set [2] of 0.25 µM (≈ 0.132 µg/mL). As for `Cn1ccc(COc2cnc3ccc(=O)n(CCN4CCC(NCc5ccc6c(n5)NC(=O)CO6)CC4)c3c2)n1`, the MIC in data set [2] was 0.25 µM (≈ 0.136 µg/mL). With `O=C1COc2ccc(CN[C@@H]3CCN(CCn4c(=O)ccc5ncc(Oc6cccnc6)cc54)C[C@@H]3F)nc2N1`, the permeability entry in the data set on Caco-2 is listed as “permeable”. Besides, the IC50 in data set [4] stood at 0.8 µM. Besides, the concentration in solution in data set [1] (solubility) was 665 µM (≈ 363 µg/mL). Further, in data set [5], the Activity result is “Dose-dependent effect”. Further, the LCK is 1 in data set [6] and more than 1 in data set [7]. This compound displayed an MIC in data set [2] of 0.25 µM (≈ 0.136 µg/mL). In data set [2], `O=C1COc2ccc(CNC3CCN(CCn4c(=O)ccc5ccc(Oc6ccon6)nc54)CC3)nc2N1` registered a minimal inhibitory concentration (MIC) of 0.25 µM (≈ 0.129 µg/mL). The same measure, in the same setting: the value for `O=C1COc2ccc(CNC3CCN(CCn4c(=O)ccc5ncc(OCc6cccnn6)cc54)CC3)nc2N1` was 1 µM (≈ 0.543 µg/mL); that for `O=C1COc2ccc(CNC3CCN(CCn4c(=O)ccc5ncc(Oc6cncc(F)c6)cc54)CC3)nc2N1` was 0.25 µM (≈ 0.136 µg/mL). Same read-out and setting: the value for `NNC(=O)c1ccncc1` [ISONIAZID] was 0.06 µM (≈ 0.00823 µg/mL).

With `O=C1COc2ccc(CNC3CCN(CCn4c(=O)ccc5ncc(Oc6cccnc6)cc54)CC3)nc2N1`, the permeability result in the data set on Caco-2 is “permeable”. The compound also came in with a solubility in data set [1] of 665 µM (≈ 351 µg/mL). This compound also returned an MIC in data set [2] of 0.06 µM (≈ 0.0317 µg/mL). The compound `O=C1COc2ccc(CNC3CCN(CCn4c(=O)ccc5ncc(O[C@@H]6CCOC6)cc54)CC3)nc2N1` gave an MIC in data set [2] of 0.25 µM (≈ 0.13 µg/mL).

`Cc1ncc(CNC2CCN(CCn3c(=O)ccc4ncc(Oc5ccc(S(N)(=O)=O)cc5)cc43)CC2)cc1C#N`: the IC50 in data set [3] was more than 100 µM. Besides, in data set [2], 0.06 µM (≈ 0.0344 µg/mL) was the least that counted as inhibitory (MIC). As to `COc1c(N2C[C@@H]3CCCN[C@@H]3C2)c(F)cc2c(=O)c(C(=O)O)cn(C3CC3)c12` [MOXIFLOXACIN], the MIC in data set [2] was 0.13 µM (≈ 0.0522 µg/mL). In data set [3], `Cc1cc2[nH]c(C3CCN(CCn4c(=O)ccc5ncc(Oc6ccc(S(N)(=O)=O)cc6)cc54)CC3)nc2cc1C#N` came in with an IC50 of more than 33 µM. The compound also yielded an MIC in data set [2] of 0.25 µM (≈ 0.146 µg/mL).

For the compound `COc1ccc2ccc(=O)n(CCN3CCC(NCc4ccc5c(n4)NC(=O)CO5)CC3)c2n1`, it took 23 µM to reach half-maximal inhibition in data set [3] (IC50). This compound also registered an MIC in data set [2] of 0.25 µM (≈ 0.116 µg/mL). Compound `O=C1COc2ccc(CNC3CCN(CCn4c(=O)ccc5ncc(O[C@H]6CCOC6)cc54)CC3)nc2N1` had an MIC in data set [2] of 0.5 µM (≈ 0.26 µg/mL). On to `NS(=O)(=O)c1ccc(Oc2cnc3ccc(=O)n(CCN4CCC(c5nc6cc(Cl)ccc6[nH]5)CC4)c3c2)cc1`, for which the permeability entry in the data set with Caco-2 is recorded as “impermeable”. Moreover, the lowest concentration to inhibit growth in data set [2] (MIC) was 0.19 µM (≈ 0.11 µg/mL).

For the compound `Cc1ncc(CNC2CCN(CCn3c(=O)ccc4ncc(Oc5ccc(S(N)(=O)=O)cc5)cc43)CC2)cc1Cl`, 82 µM corresponded to half-maximal inhibition in data set [3] (IC50). The same compound had an MIC in data set [2] of 0.06 µM (≈ 0.035 µg/mL).
